The values that follow come from patent US20260347373A1, “HETEROCYCLIC COMPOUNDS, COMPOSITIONS THEREOF, AND METHODS OF TREATMENT THEREWITH” (BeOne Medicines I GmbH, priority 2023, published 2026).

The target in one test is WT KRAS (Homo sapiens, UniProt P01116). Nature of the test: KRAS WT Probe Displacement Assay (TR-FRET, GDP-loaded). It is filed as binding. From the text:
(§1) The synthetic routes of probe 1 and 2, which have been disclosed in PCT/CN2022/070676, are hereby incorporated herein.

A further test has as its target KRAS G12D (Homo sapiens, UniProt P01116, G12D). Nature of the test: KRAS G12D Probe Displacement Assay (TR-FRET, GDP-loaded). In kind it is binding.
Text: as §1

[1] abbreviates: KRAS WT, read-out: KRAS^WT Probe Displacement Assay IC50.
Where [2] appears, read: KRAS G12D, read-out: KRAS^G12D Probe Displacement Assay IC50.

Counter-ions that a name gives are not always drawn. Like-named read-outs stand apart in the source and are kept apart here.

Chain of KRAS G12D (P01116 1-188 isoform P01116-2 G12D): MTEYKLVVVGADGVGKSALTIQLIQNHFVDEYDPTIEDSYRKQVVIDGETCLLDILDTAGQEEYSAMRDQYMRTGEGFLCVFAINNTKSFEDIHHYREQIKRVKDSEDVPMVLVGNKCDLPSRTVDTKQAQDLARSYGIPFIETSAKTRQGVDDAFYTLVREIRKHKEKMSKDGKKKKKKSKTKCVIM
Chain of WT KRAS (P01116 1-188 isoform P01116-2): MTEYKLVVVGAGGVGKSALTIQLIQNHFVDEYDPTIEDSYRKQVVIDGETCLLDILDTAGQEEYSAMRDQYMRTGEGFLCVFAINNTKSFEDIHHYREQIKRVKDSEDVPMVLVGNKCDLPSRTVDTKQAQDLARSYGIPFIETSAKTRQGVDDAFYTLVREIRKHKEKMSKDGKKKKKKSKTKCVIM

On to `CCN1CC(F)CC(C)(COc2nc3c4c(nc(-c5cc(N)cc(C)c5C(F)(F)F)c(F)c4n2)OCC[C@@H]2[C@@H]4CC[C@H](CN32)N4)C1` (stereo partly drawn) [Example 202, 3-((6aR,7S,10R)-13-((1-ethyl-5-fluoro-3-methylpiperidin-3-yl)methoxy)-1-fluoro-5,6,6a,7,8,9,10,11-octahydro-4-oxa-3,11a,12,14,15-pentaaza-7,10-methanocyclohepta[4,5]cycloocta[1,2,3-de]naphthalen-2-yl)-5-methyl-4-(trifluoromethyl)aniline], for which the IC50 on WT KRAS (setting [1]) was 3 to 1000 nM; at KRAS G12D (setting [2]), less than 0.3 nM.
As for `Cc1cc(N)cc(-c2nc3c4c(nc(OCC5(CN6CCC6)CC5(F)F)nc4c2F)N2C[C@H]4CC[C@H](N4)[C@H]2CCO3)c1C(F)(F)F` (stereo partly drawn) [Example 19, 3-((6aR,7S,10R)-13-((1-(azetidin-1-ylmethyl)-2,2-difluorocyclopropyl)methoxy)-1-fluoro-5,6,6a,7,8,9,10,11-octahydro-4-oxa-3,11a,12,14,15-pentaaza-7,10-methanocyclohepta[4,5]cycloocta[1,2,3-de]naphthalen-2-yl)-5-methyl-4-(trifluoromethyl)aniline], the results for the IC50 on WT KRAS (setting [1]) and at KRAS G12D (setting [2]) were 3 to 1000 nM and less than 0.3 nM, respectively.
As for `CCN1C[C@H](F)C[C@H]1[C@H](C)Oc1nc2c3c(nc(-c4cc(N)cc(C)c4C(F)(F)F)c(F)c3n1)OCC[C@@H]1[C@@H]3CC[C@H](CN21)N3` [Example 222, 3-((6aR,7S,10R)-13-((S)-1-((2S,4R)-1-ethyl-4-fluoropyrrolidin-2-yl)ethoxy)-1-fluoro-5,6,6a,7,8,9,10,11-octahydro-4-oxa-3,11a,12,14,15-pentaaza-7,10-methanocyclohepta[4,5]cycloocta[1,2,3-de]naphthalen-2-yl)-5-methyl-4-(trifluoromethyl)aniline], the IC50 was 3 to 1000 nM at WT KRAS (setting [1]) and less than 0.3 nM at KRAS G12D (setting [2]).
Regarding `Cc1cc(N)cc(-c2nc3c4c(nc(OCC5(CN6CC7CC6CC7(F)F)CC5)nc4c2F)N2C[C@H]4CC[C@H](N4)[C@H]2CCO3)c1C(F)(F)F` [Example 174, 3-((6aR,7S,10R)-13-((1-((5,5-difluoro-2-azabicyclo[2.2.1]heptan-2-yl)methyl)cyclopropyl)methoxy)-1-fluoro-5,6,6a,7,8,9,10,11-octahydro-4-oxa-3,11a,12,14,15-pentaaza-7,10-methanocyclohepta[4,5]cycloocta[1,2,3-de]naphthalen-2-yl)-5-methyl-4-(trifluoromethyl)aniline], the IC50 at WT KRAS (setting [1]) was 3 to 1000 nM; on KRAS G12D (setting [2]), less than 0.3 nM.
The like results for `Cc1cc(N)cc(-c2nc3c4c(nc(OCC5(CN6CCC7(CCOC7)C6)CC5)nc4c2F)N2C[C@H]4CC[C@H](N4)[C@H]2CCO3)c1C(F)(F)F` (stereo partly drawn) [Example 188, 3-((6aR,7S,10R)-13-((1-((2-oxa-7-azaspiro[4.4]nonan-7-yl)methyl)cyclopropyl)methoxy)-1-fluoro-5,6,6a,7,8,9,10,11-octahydro-4-oxa-3,11a,12,14,15-pentaaza[7,10]methanocyclohepta[4,5]cycloocta[1,2,3-de]naphthalen-2-yl)-5-methyl-4-(trifluoromethyl)aniline] were, in that order, less than 0.3 nM and less than 0.3 nM.
For `Cc1cc(N)cc(-c2nc3c4c(nc(OCC5(CN6CCCOCC6)CC5)nc4c2F)N2C[C@H]4CC[C@H](N4)[C@H]2CCO3)c1C(F)(F)F` [Example 103, 3-((6aR,7S,10R)-13-- ((1-((1,4-oxazepan-4-yl)methyl)cyclopropyl)methoxy)-1-fluoro-5,6,6a,7,8,9,10,11-octahydro-4-oxa-3,11a, 12,14,15-pentaaza-7,10-methanocyclohepta [4,5]cycloocta [1,2,3-de]naphthalen-2-yl)-5-methyl-4-(trifluoromethyl)aniline], the IC50 at WT KRAS (setting [1]) was 3 to 1000 nM; at KRAS G12D (setting [2]), less than 0.3 nM.
For `Cc1cc(N)cc(-c2nc3c4c(nc(OC[C@@]56CCCN5CC(F)(F)C6)nc4c2F)N2C[C@H]4CC[C@H](N4)[C@H]2CCO3)c1C(F)(F)F` [Example 33, 3-((6aR,7S,10R)-13-(((S)-2,2-difluorotetrahydro-1H-pyrrolizin-7a(5H)-yl)methoxy)-1-fluoro-5,6,6a,7,8,9,10,11-octahydro-4-oxa-3,11a,12,14,15-pentaaza-7,10-methanocyclohepta[4,5]cycloocta [1,2,3-de]naphthalen-2-yl)-5-methyl-4-(trifluoromethyl)aniline] the same measures were 3 to 1000 nM and less than 0.3 nM.
The like results for `CO[C@@H]1CN2C[C@H](F)C[C@]2(COc2nc3c4c(nc(-c5cc(N)cc(C)c5C(F)(F)F)c(F)c4n2)OCC[C@@H]2[C@@H]4CC[C@H](CN32)N4)C1` [Example 216, 3-((6aR,7S,10R)-1-fluoro-13-(((2R,6S,7aS)-2-fluoro-6-methoxytetrahydro-1H-pyrrolizin-7a(5H)-yl)methoxy)-5,6,6a,7,8,9,10,11-octahydro-4-oxa-3,11a,12,14,15-pentaaza-7,10-methanocyclohepta[4,5]cycloocta[1,2,3-de]naphthalen-2-yl)-5-methyl-4-(trifluoromethyl)aniline] were, in that order, 3 to 1000 nM and less than 0.3 nM.
With `Cc1cc(N)cc(-c2nc3c4c(nc(OCC5(CN6C[C@@H](F)[C@@H](O)C6)CC5)nc4c2F)N2C[C@H]4CC[C@H](N4)[C@H]2CCO3)c1C(F)(F)F` (stereo in doubt) [Example 95, cis-1-((1-((((6aR, 7S,10R)-2-(5-amino-3-methyl-2-(trifluoromethyl)phenyl)-1-fluoro-5,6,6a,7,8,9,10,11-octahydro-4-oxa-3,11a,12,14,15-pentaaza-7,10-methanocyclohepta [4,5]cycloocta[1,2,3-de]naphthalen-13-yl)oxy)methyl)cyclopropyl)methyl)-4-fluoropyrrolidin-3-ol formate], the results for the IC50 on WT KRAS (setting [1]) and at KRAS G12D (setting [2]) were 3 to 1000 nM and less than 0.3 nM, respectively.
For `Cc1cc(N)cc(-c2nc3c4c(nc(O[C@@H](C)[C@@H]5CC6(CC6)CN5C)nc4c2F)N2C[C@H]4CC[C@H](N4)[C@H]2CCO3)c1C(F)(F)F` [Example 143, 3-((6aR,7S,10R)-1-fluoro-13-((S)-1-((S)-5-methyl-5-azaspiro[2.4]heptan-6-yl)ethoxy)-5,6,6a,7,8,9,10,11-octahydro-4-oxa-3,11a,12,14,15-pentaaza[7,10]methanocyclohepta [4,5]cycloocta[1,2,3-de]naphthalen-2-yl)-5-methyl-4-(trifluoromethyl)aniline] the same measures were 3 to 1000 nM and less than 0.3 nM.
As for `Cc1cc(N)cc(-c2nc3c4c(nc(OCC5(CN6CCOCC(F)C6)CC5)nc4c2F)N2C[C@H]4CC[C@H](N4)[C@H]2CCO3)c1C(F)(F)F` (stereo partly drawn) [Example 153, 3-((6aR,7S,10R)-1-fluoro-13-((1-((6-fluoro-1,4-oxazepan-4-yl)methyl)cyclopropyl)methoxy)-5,6,6a,7,8,9,10,11-octahydro-4-oxa-3,11a,12,14,15-pentaaza-7,10-methano-cyclohepta[4,5]cycloocta [1,2,3-de]naphthalen-2-yl)-5-methyl-4-(trifluoromethyl) aniline], the concentration for half-maximal inhibition (IC50) at WT KRAS (KRAS^WT Probe Displacement Assay IC50, KRAS WT) is 3 to 1000 nM; at KRAS G12D (KRAS^G12D Probe Displacement Assay IC50, KRAS G12D), less than 0.3 nM.
Consider `[2H]C([2H])([2H])N1CCC(C(F)F)C(C)(C([2H])([2H])Oc2nc3c4c(nc(-c5cc(N)cc(Cl)c5C(F)(F)F)c(F)c4n2)OCC[C@@H]2[C@@H]4CC[C@H](CN32)N4)C1` (single isomer, unassigned) [Example 247], for which the IC50 was 0.3 to 3 nM at WT KRAS (setting [1]) and less than 0.3 nM on KRAS G12D (setting [2]).
For `Cc1cc(N)cc(-c2nc3c4c(nc(OCC5(CN6CCc7cnn(C)c7C6)CC5)nc4c2F)N2C[C@H]4CC[C@H](N4)[C@H]2CCO3)c1C(F)(F)F` [Example 193], the IC50 was 3 to 1000 nM on WT KRAS (setting [1]) and less than 0.3 nM on KRAS G12D (setting [2]).
As for `CO[C@@H]1CCN(CC2(COc3nc4c5c(nc(-c6cc(N)cc(C)c6C(F)(F)F)c(F)c5n3)OCC[C@@H]3[C@@H]5CC[C@H](CN43)N5)CC2)C1` [Example 87, 3-((6aR,7S,10R)-1-fluoro-13-((1-(((R)-3-methoxypyrrolidin-1-yl)methyl)cyclopropyl)methoxy)-5,6,6a,7,8,9,10,11-octahydro-4-oxa-3,11a,12,14,15-pentaaza-7,10-methanocyclohepta [4,5]cycloocta [1,2,3-de]naphthalen-2-yl)-5-methyl-4-(trifluoromethyl)aniline], the IC50 on WT KRAS (setting [1]) is 3 to 1000 nM; at KRAS G12D (setting [2]), less than 0.3 nM.
As for `CN(C)CC1(COc2nc3c4c(nc(-c5cc(N)cc(Cl)c5C(F)(F)F)c(F)c4n2)OCC[C@@H]2[C@@H]4CC[C@H](CN32)N4)CC1(F)F` (mixture of isomers) [Example 18, 3-chloro-5-((6aR,7S,10R)-13-((1-((dimethylamino)methyl)-2,2-difluorocyclopropyl)methoxy)-1-fluoro-5,6,6a,7,8,9,10,11-octahydro-4-oxa-3,11a,12,14,15-pentaaza-7,10-methanocyclohepta[4,5]cycloocta [1,2,3-de]naphthalen-2-yl)-4-(trifluoromethyl)aniline], the figures for the IC50 on WT KRAS (setting [1]) and at KRAS G12D (setting [2]) were 3 to 1000 nM and less than 0.3 nM, respectively.
The like results for `Cc1cc(N)cc(-c2nc3c4c(nc(OCC5(CN6CCCC6CO)CC5)nc4c2F)N2C[C@H]4CC[C@H](N4)[C@H]2CCO3)c1C(F)(F)F` (single isomer, unassigned) [Example 124] were, in that order, 3 to 1000 nM and 0.3 to 3 nM.
Consider `Cc1cc(N)cc(-c2nc3c4c(nc(OCC5(CN(C)C)CC5(F)F)nc4c2F)N2C[C@H]4CC[C@H](N4)[C@H]2CCO3)c1C(F)(F)F` (stereo partly drawn) [Example 16], for which the IC50 at WT KRAS (setting [1]) is 3 to 1000 nM; on KRAS G12D (setting [2]), less than 0.3 nM.
Take `Cc1cc(N)cc(-c2nc3c4c(nc(OCC5(CN6CCC7(CC6)COC7)CC5)nc4c2F)N2C[C@H]4CC[C@H](N4)[C@H]2CCO3)c1C(F)(F)F` [Example 102, 3-((6aR,7S,10R)-13-((1-((2-oxa-7-azaspiro[3.5]nonan-7-yl)methyl)cyclopropyl)methoxy)-1-fluoro-5,6,6a,7,8,9,10,11-octahydro-4-oxa-3,11a,12,14,15-pentaaza[7,10]methanocyclohepta [4,5]cycloocta [1,2,3-de]naphthalen-2-yl)-5-methyl-4-(trifluoromethyl)aniline]: the IC50 at WT KRAS (setting [1]) was 0.3 to 3 nM; on KRAS G12D (setting [2]), less than 0.3 nM.
